The results in this text go back to patent publication US20210198277A1, “AMINE-SUBSTITUTED ARYL OR HETEROARYL COMPOUNDS” (Epizyme, Inc., priority 2016, published 2021).

One experiment deals with T1, EHMT1 (Homo sapiens, UniProt Q9H9B1).
T1 sequence (Q9H9B1 1-1298): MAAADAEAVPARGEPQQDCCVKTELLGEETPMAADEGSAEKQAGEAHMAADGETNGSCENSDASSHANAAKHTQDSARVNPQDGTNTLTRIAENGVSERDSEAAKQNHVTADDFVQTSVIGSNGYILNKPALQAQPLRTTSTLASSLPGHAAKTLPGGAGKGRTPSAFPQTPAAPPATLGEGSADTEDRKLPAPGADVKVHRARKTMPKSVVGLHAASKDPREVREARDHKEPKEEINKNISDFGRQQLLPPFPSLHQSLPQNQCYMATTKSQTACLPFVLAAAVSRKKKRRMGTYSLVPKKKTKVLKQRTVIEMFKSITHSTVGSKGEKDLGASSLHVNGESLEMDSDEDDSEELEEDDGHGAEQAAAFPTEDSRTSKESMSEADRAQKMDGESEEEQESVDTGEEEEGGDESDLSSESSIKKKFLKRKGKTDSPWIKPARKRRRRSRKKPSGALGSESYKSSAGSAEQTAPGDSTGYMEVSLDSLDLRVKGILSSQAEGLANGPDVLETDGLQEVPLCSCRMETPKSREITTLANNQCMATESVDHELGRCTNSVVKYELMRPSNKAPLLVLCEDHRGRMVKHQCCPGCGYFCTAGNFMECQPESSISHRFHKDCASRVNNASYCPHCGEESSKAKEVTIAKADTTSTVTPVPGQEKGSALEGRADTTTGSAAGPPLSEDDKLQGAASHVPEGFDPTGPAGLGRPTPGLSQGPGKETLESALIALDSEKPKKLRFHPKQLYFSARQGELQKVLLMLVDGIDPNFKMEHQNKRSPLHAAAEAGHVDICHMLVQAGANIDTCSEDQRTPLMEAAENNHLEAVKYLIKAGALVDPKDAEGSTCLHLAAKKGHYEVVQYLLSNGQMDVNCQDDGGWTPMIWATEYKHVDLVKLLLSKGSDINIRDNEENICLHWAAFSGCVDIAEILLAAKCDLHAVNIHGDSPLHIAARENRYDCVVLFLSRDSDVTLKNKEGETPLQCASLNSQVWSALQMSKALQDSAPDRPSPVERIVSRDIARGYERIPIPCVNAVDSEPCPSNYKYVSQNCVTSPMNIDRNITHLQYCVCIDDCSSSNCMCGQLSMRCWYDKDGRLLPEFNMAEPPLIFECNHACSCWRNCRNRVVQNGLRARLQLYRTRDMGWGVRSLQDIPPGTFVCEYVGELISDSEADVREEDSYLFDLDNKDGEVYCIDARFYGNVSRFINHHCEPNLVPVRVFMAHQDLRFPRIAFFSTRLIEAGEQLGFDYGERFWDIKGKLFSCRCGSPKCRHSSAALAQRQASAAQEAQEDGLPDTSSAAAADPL
Briefly: EHMT1 enzyme assay on peptide substrate (EHMT1 PEP). The note with it: Table II; read-out: EHMT1 PEP (IC50 μM). The class given is biochemical.

The next experiment deals with T2, human EHMT2 913-1193 (Homo sapiens, UniProt Q96KQ7).
T2 construct: recombinant purified human EHMT2 913-1193, Viva; purchased Viva
T2 sequence (Q96KQ7 913-1193): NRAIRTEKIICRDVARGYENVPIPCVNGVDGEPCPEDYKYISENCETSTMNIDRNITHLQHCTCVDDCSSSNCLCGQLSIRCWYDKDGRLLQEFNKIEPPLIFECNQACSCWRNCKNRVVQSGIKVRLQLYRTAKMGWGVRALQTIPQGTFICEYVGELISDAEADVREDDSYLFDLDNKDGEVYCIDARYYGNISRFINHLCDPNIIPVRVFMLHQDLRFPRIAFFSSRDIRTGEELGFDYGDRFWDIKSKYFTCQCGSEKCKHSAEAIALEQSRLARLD
In words: EHMT2 enzyme assay on histone peptide substrate (EHMT2 PEP). The note with it: Table II; read-out: EHMT2 PEP (IC50 μM). The experiment is classed as biochemical. A digest of the protocol:
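Compounds were tested as 3-fold dilutions, 10 points from a 50 μM final top (2% DMSO), after 30-min preincubation with 0.031 nM enzyme in Bicine buffer pH 7.5. Transfer of ^3H-methyl from ^3H-SAM to biotinylated histone peptide ran 60 min at room temperature and was detected by streptavidin Flashplate scintillation.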

Consider `COc1ccc(Nc2nccc(N3CCCOCC3)n2)cc1OCCCN1CCCC1` [Compound 151], for which the half-maximal inhibitory concentration (IC50) on EHMT1 and at human EHMT2 913-1193 was more than 10 µM in each case.

In the case of `COc1ccc(Nc2nccc(NC3CCS(=O)(=O)CC3)n2)cc1OCCCN1CCCC1` [Compound 152], the 50% inhibitory concentration (IC50) at EHMT1 and at human EHMT2 913-1193 was 1 to 10 µM throughout.

For the compound `COc1ccc(Nc2nccc(N3CCC(C(N)=O)CC3)n2)cc1OCCCN1CCCC1` [Compound 153], the IC50 on EHMT1 and on human EHMT2 913-1193 was 1 to 10 µM throughout.

For the compound `COc1ccc(Nc2nccc(N3CCNc4ccccc4C3)n2)cc1OCCCN1CCCC1` [Compound 154], the IC50 (in general, the midpoint of a concentration-inhibition curve) is more than 10 µM at EHMT1 and 1 to 10 µM on human EHMT2 913-1193.

For `COc1ccc(Nc2nccc(N3CCc4cn[nH]c4C3)n2)cc1OCCCN1CCCC1` [Compound 155], the values for the IC50 on EHMT1 and on human EHMT2 913-1193 were more than 10 µM and 1 to 10 µM, respectively.

Regarding `COc1ccc(Nc2nccc(N3CCc4ncncc4C3)n2)cc1OCCCN1CCCC1` [Compound 156], the IC50 at EHMT1 and at human EHMT2 913-1193 was 1 to 10 µM in each case.

Regarding `COc1ccc(Nc2ccnc(OCC3CCN(C(C)=O)CC3)c2)cc1OCCCN1CCCC1` [Compound 157], the IC50 at EHMT1 and at human EHMT2 913-1193 was 1 to 10 µM each time.

For the compound `COc1ccc(N(C)c2nccc(NCC3CCN(C(C)=O)CC3)n2)cc1OCCCN1CCCC1` [Compound 158], the IC50 at EHMT1 and at human EHMT2 913-1193 was more than 10 µM each time.

As to `COc1ccc(Nc2nccc(NCC3CCN(C)CC3)n2)cc1OCCCNc1ccccc1` [Compound 159], the IC50 on EHMT1 and at human EHMT2 913-1193 was more than 10 µM throughout.

On to `COc1ccc(Nc2nccc(NCC3CCN(C(C)=O)CC3)n2)cc1OCCCNc1ccccc1` [Compound 160], for which the IC50 at EHMT1 and on human EHMT2 913-1193 was more than 10 µM in each case.

Regarding `COc1ccc(Nc2nccc(N3CCC(NC(C)=O)CC3)n2)cc1OCCCN1CCCC1` [Compound 161], the 50% inhibitory concentration (IC50) at EHMT1 and on human EHMT2 913-1193 was more than 10 µM throughout.

As to `COc1ccc(Nc2nccc(N3CCN(S(C)(=O)=O)CC3)n2)cc1OCCCN1CCCC1` [Compound 162], the IC50 on EHMT1 and at human EHMT2 913-1193 was more than 10 µM in each case.

As to `COc1ccc(Nc2cc(N(C)CC3CCN(C(C)=O)CC3)ccn2)cc1OCCCN1CCCC1` [Compound 163], the IC50 on EHMT1 and at human EHMT2 913-1193 was more than 10 µM each time.

`COc1ccc(Nc2nccc(NCc3ccc4[nH]ncc4c3)n2)cc1OCCCN1CCCC1` [Compound 164]: the concentration for half-maximal inhibition (IC50) on EHMT1 and at human EHMT2 913-1193 was more than 10 µM each time.

On to `COc1ccc(Nc2nccc(NCc3ccc(=O)[nH]c3)n2)cc1OCCCN1CCCC1` [Compound 165], for which the IC50 on EHMT1 and on human EHMT2 913-1193 was 0.1 to 1 µM in each case.

Turning to `COc1ccc(Nc2nccc(NCC3CCN(C(C)=O)CC3)n2)cc1OCCC(=O)N1CCCC1` [Compound 166], the IC50 on EHMT1 and at human EHMT2 913-1193 was more than 10 µM throughout.

In the case of `COc1ccc(Nc2nccc(NCCc3ccccn3)n2)cc1OCCCN1CCCC1` [Compound 167], the half-inhibitory concentration (IC50) on EHMT1 and on human EHMT2 913-1193 was 0.1 to 1 µM in each case.

On to `COc1ccc(Nc2nccc(N3CCN(c4ccccn4)CC3)n2)cc1OCCCN1CCCC1` [Compound 168], for which the IC50 on EHMT1 and at human EHMT2 913-1193 was more than 10 µM each time.

Regarding `COc1ccc(Nc2nccc(N3CCS(=O)(=O)CC3)n2)cc1OCCCN1CCCC1` [Compound 169], the IC50 on EHMT1 and at human EHMT2 913-1193 was more than 10 µM each time.

Consider `COc1ccc(Nc2nccc(N3CC(C(=O)N(C)C)C3)n2)cc1OCCCN1CCCC1` [Compound 170], for which the concentration for half-maximal inhibition (IC50) on EHMT1 and at human EHMT2 913-1193 was more than 10 µM throughout.

Turning to `COc1ccc(Nc2nccc(N(C)C)n2)cc1OCCCN1CCCC1` [Compound 171], the IC50 on EHMT1 and at human EHMT2 913-1193 was 1 to 10 µM each time.

With `COc1ccc(Nc2nccc(N(C)CC3CCN(C(C)=O)CC3)n2)cc1OCCCN1CCCC1` [Compound 172], the IC50 at EHMT1 and on human EHMT2 913-1193 was 1 to 10 µM throughout.

On to `COc1ccc(Nc2cc(OCC3CCN(C(C)=O)CC3)ccn2)cc1OCCCN1CCCC1` [Compound 173], for which the half-inhibitory concentration (IC50) at EHMT1 and at human EHMT2 913-1193 was 1 to 10 µM in each case.

On to `COc1ccc(Nc2nccc(C)n2)cc1OCCCN1CCCC1` [Compound 174], for which the IC50 on EHMT1 and on human EHMT2 913-1193 was more than 10 µM each time.

As for `COc1ccc(Nc2nc(C)cc(C)n2)cc1OCCCN1CCCC1` [Compound 175], the IC50 at EHMT1 and at human EHMT2 913-1193 was more than 10 µM throughout.

As to `CNc1cccc(Nc2ccc(OC)c(OCCCN3CCCC3)c2)n1` [Compound 176], the IC50 at EHMT1 and on human EHMT2 913-1193 was more than 10 µM throughout.

As to `COCCN(C)c1ccnc(Nc2ccc(OC)c(OCCCN3CCCC3)c2)n1` [Compound 177], the IC50 is more than 10 µM on EHMT1 and 1 to 10 µM on human EHMT2 913-1193.

Consider `COc1ccc(Nc2nccc(NCCC3CCOCC3)n2)cc1OCCCN1CCCC1` [Compound 178], for which the IC50 on EHMT1 and at human EHMT2 913-1193 was 0.1 to 1 µM each time.

For `COc1ccc(Nc2nccc(N3CC(C(N)=O)C3)n2)cc1OCCCN1CCCC1` [Compound 179], the IC50 on EHMT1 and at human EHMT2 913-1193 was more than 10 µM in each case.

In the case of `COc1ccc(Nc2nccc(-n3cc(C)cn3)n2)cc1OCCCN1CCCC1` [Compound 180], the IC50 at EHMT1 and on human EHMT2 913-1193 was more than 10 µM throughout.

`COc1ccc(Nc2ncc(CO)cn2)cc1OCCCN1CCCC1` [Compound 181]: the IC50 on EHMT1 and at human EHMT2 913-1193 was more than 10 µM in each case.

For `COc1cnc(Nc2cc(NCC3CCN(C(C)=O)CC3)ccn2)cc1OCCCN1CCCC1` [Compound 182], the IC50 on EHMT1 and on human EHMT2 913-1193 was 0.1 to 1 µM each time.

In the case of `COc1ccc(Nc2nccc(NCC3CCN(C(C)=O)CC3)n2)cc1OCC(C)CN1CCCC1` (centres unmarked) [Compound 183], the IC50 at EHMT1 and at human EHMT2 913-1193 was 1 to 10 µM throughout.

As to `COc1ccc(Nc2cncc(NCC3CCN(C(C)=O)CC3)c2)cc1OCCCN1CCCC1` [Compound 184], the IC50 at EHMT1 and on human EHMT2 913-1193 was more than 10 µM throughout.

Consider `COc1ccc(Nc2cc(NCC3CCN(C(C)=O)CC3)cnn2)cc1OCCCN1CCCC1` [Compound 185], for which the IC50 on EHMT1 and on human EHMT2 913-1193 was 1 to 10 µM throughout.

Consider `CNc1cc(C)nc(Nc2ccc(OC)c(OCCCN3CC[C@@H](F)C3)c2)n1` [Compound 186], for which the IC50 on EHMT1 and on human EHMT2 913-1193 was 0.1 to 1 µM throughout.

For `CNc1nc(Nc2ccc(OC)c(OCCCN3CCCC3)c2)ncc1F` [Compound 187], the IC50 on EHMT1 and on human EHMT2 913-1193 was 1 to 10 µM in each case.

For `CNc1cc(Nc2ccc(OC)c(OCCCN3CCCC3)c2)cnn1` [Compound 188], the IC50 at EHMT1 and at human EHMT2 913-1193 was 0.1 to 1 µM throughout.

As for `COc1ccc(Nc2nccc(NCc3ccc4nccn4c3)n2)cc1OCCCN1CCCC1` [Compound 191], the IC50 at EHMT1 and on human EHMT2 913-1193 was less than 0.1 µM throughout.

Take `COc1ccc(Nc2nccc(NC3CN(C(C)=O)C3)n2)cc1OCCCN1CCCC1` [Compound 192]: the IC50 on EHMT1 and on human EHMT2 913-1193 was 0.1 to 1 µM in each case.

Take `COc1ccc(Nc2nccc(NCCn3cccn3)n2)cc1OCCCN1CCCC1` [Compound 193]: the IC50 on EHMT1 and on human EHMT2 913-1193 was 0.1 to 1 µM each time.

On to `COc1ccc(Nc2nccc(NCC3CCN(C(C)=O)CC3)n2)cc1OC(C)CCN1CCCC1` (centres unmarked) [Compound 195], for which the IC50 on EHMT1 and at human EHMT2 913-1193 was 1 to 10 µM throughout.

For `COc1ccc(Nc2nccc(NCC3CCN(S(C)(=O)=O)CC3)n2)cc1OCCCN1CCCC1` [Compound 199], the IC50 on EHMT1 and at human EHMT2 913-1193 was 0.1 to 1 µM in each case.
